Tested on: nitric oxide (NO) production in LPS-treated RAW264.7 cells
Experiment: Anti-inflammation activity: NO production by Griess reagent
Assay type: cell-based, mouse
Settings: LPS-induced RAW264.7, 48 hours, FIG. 2
Experimental: RAW264.7 cells which have been induced to have an inflammation response by LPS in the same manner as above were added to a 96-well plate. […] Then, by using the Griess reagent, the production amount of NO was measured.

With `COc1ccc2c(c1)c(CC(=O)O)c(C)n2C(=O)c1ccc(Cl)cc1` [indomethacin] the “NO production (result in words)” value was “decreased”.
